What was measured:
[1] = target: T1, αvβ6-induced TGF-β activation (Homo sapiens, UniProt P06756+P18564); assay: TGF-β co-culture assay, SW-β6 cells with MLEC luciferase reporter cells; format: cell-based; settings: integrin αvβ6
T1 construct: expressed in transfected cells; host or cells: SW480 cells stably transfected with β6 (SW-β6), co-cultured with MLEC reporter cells
Protocol: SW-β6 cells and MLECs or CHO-αv cells and MLECs were cultured in 96-well plates with test compounds or antibodies for 20 h at 37 °C in a 5% CO2 incubator. […] Measurement of MLEC luciferase production resulting from αvβ6- or αvβ1-mediated TGF-β activation was performed using the Bright-Glo Luciferase Assay System (Promega; Madison, WI, USA) according to manufacturer’s instruction. Luminescence was quantified by a Tecan Spark 10M plate reader. IC50 curves were generated using Dotmatics software suite with five-parameter logistic curve fitting. Geometric mean IC50 was calculated for each compound from multiple independent analyses.

[2] = tested on: IPF lung fibroblast adhesion to LAP; assay: Primary cell LAP adhesion assay (cell impedance), IPF HLF; format: cell-based; settings: Homo sapiens, HLFs isolated from fibrotic (IPF) lung tissue, read-out: IC50 for blocking adhesion to LAP
Protocol: Adhesion of primary human lung cells to LAP was quantified using the xCELLigence RTCA MP instrument (ACEA Biosciences; San Diego, CA, USA) via cell impedance measurements similar to that previously described.
Adhesion assays were performed using the xCELLigence RTCA MP instrument (ACEA Biosciences; San Diego, CA, USA) on 96-well PET plates (ACEA Biosciences; 300600910) via a cell impedance measurement similar to one previously described (E6). Plates were coated with LAP (Sino Biological; 10804-H08H1) overnight at 4 °C and blocked with BSA for 2 h at 37 °C. NHLF (40,000 cells/well), dHLF (40,000 cells/well), or NHBE (20,000 cells per well) in FBS-free media were combined with small-molecule integrin inhibitors or antibodies in the plates and incubated at 37 °C with 5% CO2. […] Anti-αv antibody, 17E6, and anti-β1 antibody, P5D2, were tested at a single concentration (10 μg/ml). Cell impedance (cell index) was measured at baseline and every 3 min for up to 24 h using xCELLigence RTCA 2.1.0 Software (ACEA Biosciences). […] Geometric mean IC50 was calculated for each compound following repeat analyses of multiple donor cells.

[3] = tested on: Smad2 phosphorylation (canonical TGF-β signaling) in IPF PCLSs; assay: Smad2 phosphorylation in PCLSs from IPF explant tissue; format: cell-based, human; settings: 7 days; n = 3 individual patients (Fig. S1B)
Protocol: Integrin αvβ1 protein levels and Smad phosphorylation levels in tissues or cells were quantified by the Meso Scale Discovery custom electrochemiluminescence assay.
Biotin-labeled antibodies for total Smad2/3, phosphorylated Smad2 (pSmad2), and total Smad2 (Cell Signaling Technology; Danvers, MA, USA), and antibodies for phosphorylated Smad3 (pSmad3) and total Smad3 (Abcam; Cambridge, UK) were utilized for pSmad electrochemiluminescence assays.
pSmad2 and total Smad2 quantitation were performed similarly to that described for pSmad3 and total Smad3 above, with the exception that U-PLEX linker conjugated biotinylated anti-pSmad2 and total Smad2 antibodies were bound to U-PLEX MSD assay plates (MSD; K15227N-2) according to manufacturer’s instruction, followed by unknown sample incubation and addition of sulfo-tag-labeled anti-Smad2/3 antibody.
Human PCLSs were generated from lung tissue explants from patients with IPF undergoing transplant surgery and cultured based on previously reported methods (E7-E12). Slices of tissue (400 µm) were cut using a Compresstome VF-300-0Z (Precisionary Instruments; Natick, MA, USA).

[4] = tested on: PCLSs prepared from bleomycin-challenged mouse lungs; assay: Col1a1 expression in PCLSs from bleomycin-challenged mouse lungs; format: cell-based
Text: PCLSs were generated from explanted lung tissue from patients with IPF and cultured as previously described. Mouse PCLSs were generated and cultured as previously described. Messenger ribonucleic acid (mRNA) levels in lysates prepared from snap-frozen tissue slices were quantified via NanoString PlexSet reagents and nCounter SPRINT Profiler (NanoString; Seattle, WA, USA; Additional file 1: Table S2) or TaqMan primers/probes on a Bio-Rad CFX96 thermocycler (Bio-Rad; Hercules, CA, USA; Additional file 1: Table S3).
Mouse PCLSs were generated and cultured based on previously reported methods (E13). Briefly, mice were challenged with bleomycin (Hospira; Lake Forest, IL, USA or Teva; Toronto, ON, Canada), either acutely with a single dose (3 U/kg or 4 U/kg) or chronically with multiple doses (3 U/kg bleomycin followed by four 1 U/kg challenges at 2-week intervals). Fourteen days after the final bleomycin challenge, lungs were harvested and 200 μm-thick slices were cut using a Compresstome VF-300-0Z (Precisionary Instruments).
Slices from each individual core (human) or mouse were distributed among the treatment groups to control for variability in the fibrotic injury within the tissue. […] After 3 or 7 days in culture, slices were washed and snap-frozen. Viability of sentinel slices on Days 0/1 and 3/7 was determined using WST-1 Cell Proliferation Reagent (Sigma 5015944001; St Louis, MO, USA).
For all figures (except Fig. 2B, Fig. S2, and Fig. S4), snap-frozen tissue slices were incubated in one-third RLT buffer (Qiagen #79216; Venlo, Netherlands) supplemented with 2 mg/ml proteinase K (Sigma-Aldrich #3115887001; St Louis, MO, USA) at 55 °C for 2 h 45 min, with periodic vortexing to generate ribonucleic acid (RNA)-compatible tissue lysate. This lysate was incubated overnight with probes from a custom fibrosis gene panel and NanoString PlexSet reagents (Table S2). The following day, samples were analyzed on a NanoString nCounter SPRINT Profiler (NanoString; Seattle, WA, USA). Messenger RNA (mRNA) counts were normalized to housekeeping genes (GUSB, HPRT1, RPLP0, and/or POLR1B) and total mRNA counts, relative to vehicle-treated control from the same experiment, are reported.
For Figs. 2B, S2, and S4, RNA purification and qPCR were performed by Transcriptic, Inc. (Menlo Park, CA, USA) using a proprietary automated protocol. Briefly, RNA was purified on a KingFisher Flex system (Thermo Fisher) and qPCR was performed on a Bio-Rad CFX96 (Bio-Rad; Hercules, CA, USA) with TaqMan primers/probes (Thermo Fisher) listed in Table S3. Ct values were normalized to housekeeping genes (Rn18sRn45s and Hprt) and reported as ddCT and fold change versus the vehicle-treated samples.

T1 sequence (P06756 31-1048): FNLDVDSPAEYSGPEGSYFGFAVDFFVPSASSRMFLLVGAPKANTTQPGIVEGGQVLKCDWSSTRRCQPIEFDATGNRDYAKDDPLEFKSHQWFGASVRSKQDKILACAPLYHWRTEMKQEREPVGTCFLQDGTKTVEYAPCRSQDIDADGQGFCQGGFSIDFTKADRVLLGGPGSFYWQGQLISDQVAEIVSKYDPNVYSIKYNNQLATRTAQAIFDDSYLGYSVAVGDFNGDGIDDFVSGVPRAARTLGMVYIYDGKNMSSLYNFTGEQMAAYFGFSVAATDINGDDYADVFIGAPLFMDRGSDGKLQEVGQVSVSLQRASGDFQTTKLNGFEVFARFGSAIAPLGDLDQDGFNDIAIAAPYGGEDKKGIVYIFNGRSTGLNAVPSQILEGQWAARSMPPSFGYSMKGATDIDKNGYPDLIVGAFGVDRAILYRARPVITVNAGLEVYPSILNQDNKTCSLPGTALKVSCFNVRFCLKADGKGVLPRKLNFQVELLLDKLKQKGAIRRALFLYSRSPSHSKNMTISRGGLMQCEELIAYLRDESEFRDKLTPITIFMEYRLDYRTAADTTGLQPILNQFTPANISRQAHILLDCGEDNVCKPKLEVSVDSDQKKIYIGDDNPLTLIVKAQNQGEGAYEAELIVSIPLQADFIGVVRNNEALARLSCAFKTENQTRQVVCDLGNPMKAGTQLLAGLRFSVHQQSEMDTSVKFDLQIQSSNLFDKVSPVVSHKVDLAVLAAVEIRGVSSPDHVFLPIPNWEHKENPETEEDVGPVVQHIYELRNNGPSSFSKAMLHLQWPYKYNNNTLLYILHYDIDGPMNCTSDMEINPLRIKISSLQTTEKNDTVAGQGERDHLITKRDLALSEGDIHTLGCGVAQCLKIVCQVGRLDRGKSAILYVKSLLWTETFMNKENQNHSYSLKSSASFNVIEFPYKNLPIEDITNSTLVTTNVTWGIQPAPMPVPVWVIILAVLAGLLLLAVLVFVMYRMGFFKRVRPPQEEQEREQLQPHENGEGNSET
T1 sequence (P18564 22-788): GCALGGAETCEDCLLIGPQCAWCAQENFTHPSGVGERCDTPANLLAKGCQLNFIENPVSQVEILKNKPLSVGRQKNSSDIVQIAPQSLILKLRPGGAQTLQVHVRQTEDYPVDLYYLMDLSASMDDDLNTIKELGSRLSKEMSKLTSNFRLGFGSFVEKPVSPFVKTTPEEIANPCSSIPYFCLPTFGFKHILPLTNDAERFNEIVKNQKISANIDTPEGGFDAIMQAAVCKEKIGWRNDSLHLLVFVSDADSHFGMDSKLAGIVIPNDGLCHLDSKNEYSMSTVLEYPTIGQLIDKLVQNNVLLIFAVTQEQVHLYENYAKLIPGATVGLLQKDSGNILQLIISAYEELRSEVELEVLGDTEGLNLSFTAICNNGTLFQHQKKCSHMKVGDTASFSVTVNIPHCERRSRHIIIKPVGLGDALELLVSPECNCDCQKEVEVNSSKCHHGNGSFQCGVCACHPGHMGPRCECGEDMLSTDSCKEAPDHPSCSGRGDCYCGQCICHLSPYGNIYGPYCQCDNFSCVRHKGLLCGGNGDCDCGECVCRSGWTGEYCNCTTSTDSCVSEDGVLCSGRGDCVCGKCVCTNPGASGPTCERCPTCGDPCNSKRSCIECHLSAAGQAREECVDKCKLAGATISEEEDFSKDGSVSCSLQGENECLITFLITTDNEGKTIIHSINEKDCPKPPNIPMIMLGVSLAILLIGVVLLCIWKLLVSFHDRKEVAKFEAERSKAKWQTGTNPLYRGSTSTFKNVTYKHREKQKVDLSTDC

COCCN(CCCCc1ccc2c(n1)NCCC2)CC[C@H](Nc1ncnc2ccccc12)C(=O)O [PLN-74809]
Fold selectivity (vs αvβ6) ([1]; TGF-β activation): 1× | IC50 [1]: 29.8 nM | IC50 [2]: 23.5 nM | reduction in Smad2 phosphorylation [3]: approximately 50% | lowest concentration with significant reduction of Col1a1 mRNA expression ([4]; 3 days of treatment (Fig. S2)): 16 nM | reduction of Col1a1 mRNA expression ([4]; 3 days of treatment, dose titration (Fig. S2)): up to 71% | IC50 ([4]; Mus musculus, 72 h, 3 days of treatment, extrapolation from dose-response curve of combined experiments (Fig. S4), read-out: minimum concentration required to reduce Col1a1 mRNA levels by 50%): 172 nM | inhibition of collagen mRNA expression ([4]; acutely injured mouse lungs, 3 days, PLN-74809 200 nM, GSK3008348 1000 nM, CWHM-12 1000 nM (Fig. 2B)): virtually the same degree as less selective multi-αv integrin inhibitors | effect on Col1a1 gene expression ([4]; chronic bleomycin-challenged mouse lungs, 7 days of treatment, nintedanib and pirfenidone at approximate clinical Cmax (Fig. 6C)): significantly reduced | effect on Col1a1 mRNA expression ([4]; chronic bleomycin-challenged mouse lungs, 7 days, Compound A 471 nM, 3G9 0.5 µg/ml, PLN-74809 1.82 µM (Fig. 2A)): effective at significantly reducing
